The target in experiment [1] is human mGluR5 (Homo sapiens, UniProt P41594). Nature of the experiment: Cell-based functional Ca2+ mobilization assay (FDSS), potentiation of glutamate EC20 response. The settings on record: H10H cell-line. The text has this: Human mGluR5a cDNA in pCMV6-XL6 mammalian expression plasmid was purchased from OriGene Technologies, Inc. (catalogue number SC326357) and subcloned into pcDNA3.1(-). Human embryonic kidney (HEK)293A cells were then transfected with human mGluR5a pcDNA3.1(-) using LipofectAmine-2000 (Invitrogen) and monoclones were selected and tested for functional response using a Ca^2+ mobilization assay. Monoclones were named for the species (“H” for human) plus the location on the plate (e.g. “10H”). […] Cell-lines used were either the H10H or […] cell-lines expressing the human mGluR5 receptor. The following day, the growth medium was removed and the cells were washed with assay buffer containing 1× Hank's balanced salt solution (Invitrogen, Carlsbad, Calif.), 20 mM HEPES, 2.5 mM probenecid, pH 7.4 and left with 20 μL of this reagent. Following this step, the cells were loaded with calcium indicator dye, fluo-4 AM, to a final concentration of 2 μM and incubated for 40-45 min at 37° C. The dye solution was removed and replaced with assay buffer. Cell plates were held for 10-15 min at room temperature and were then loaded into the Functional Drug Screening System 6000 (FDSS 6000, Hamamatsu, Japan). […] Calcium fluorescence measures were recorded as fold over basal fluorescence; raw data was then normalized to the maximal response to glutamate. […] The concentration-response curves of compounds of the present invention, obtained in the presence of EC20 of mGluR5 receptor agonist glutamate to determine positive allosteric modulation, were generated using Microsoft Excel with IDBS XLfit add-ins. The raw data file containing all time points was used as the data source in the analysis template. This was saved by the FDSS as a tab-delimited text file. Data were normalized using a static ratio function (F/F0) for each measurement of the total 350 values per well divided by each well's initial value. […] This is sufficient time to capture the peak amplitude of the cellular Calcium response. […] Each of the three values collected at each concentration of test compound were weighted evenly. Individual values falling outside the 95% prediction limits of the curve fit were automatically excluded from the fit. […] These two methods are in good agreement for curves with a clear plateau at the high concentration range. […] For consistency purposes across the range of potencies observed, all EMax values reported in this application are calculated using the maximum average response at a single concentration. The % EMax value for each compound reported in this application is defined as the maximum % effect obtained in a concentration-response curve of that compound expressed as a percent of the response of a maximally effect concentration of glutamate. […] Table IV below lists specific compounds as well as experimentally determined mGluR5 activity determined in a cell-based. The mGluR5 activity was determined using the metabotropic glutamate receptor activity assays in human embryonic kidney cells as described herein, wherein the human embryonic kidney cells were transfected with human mGluR5. The data in Table III were obtained using the H10H cell-line which expresses recombinant human mGluR5. The compound number corresponds to the compound numbers used in Table I.
Chain of human mGluR5 (P41594 21-1180 isoform P41594-2 limits assumed): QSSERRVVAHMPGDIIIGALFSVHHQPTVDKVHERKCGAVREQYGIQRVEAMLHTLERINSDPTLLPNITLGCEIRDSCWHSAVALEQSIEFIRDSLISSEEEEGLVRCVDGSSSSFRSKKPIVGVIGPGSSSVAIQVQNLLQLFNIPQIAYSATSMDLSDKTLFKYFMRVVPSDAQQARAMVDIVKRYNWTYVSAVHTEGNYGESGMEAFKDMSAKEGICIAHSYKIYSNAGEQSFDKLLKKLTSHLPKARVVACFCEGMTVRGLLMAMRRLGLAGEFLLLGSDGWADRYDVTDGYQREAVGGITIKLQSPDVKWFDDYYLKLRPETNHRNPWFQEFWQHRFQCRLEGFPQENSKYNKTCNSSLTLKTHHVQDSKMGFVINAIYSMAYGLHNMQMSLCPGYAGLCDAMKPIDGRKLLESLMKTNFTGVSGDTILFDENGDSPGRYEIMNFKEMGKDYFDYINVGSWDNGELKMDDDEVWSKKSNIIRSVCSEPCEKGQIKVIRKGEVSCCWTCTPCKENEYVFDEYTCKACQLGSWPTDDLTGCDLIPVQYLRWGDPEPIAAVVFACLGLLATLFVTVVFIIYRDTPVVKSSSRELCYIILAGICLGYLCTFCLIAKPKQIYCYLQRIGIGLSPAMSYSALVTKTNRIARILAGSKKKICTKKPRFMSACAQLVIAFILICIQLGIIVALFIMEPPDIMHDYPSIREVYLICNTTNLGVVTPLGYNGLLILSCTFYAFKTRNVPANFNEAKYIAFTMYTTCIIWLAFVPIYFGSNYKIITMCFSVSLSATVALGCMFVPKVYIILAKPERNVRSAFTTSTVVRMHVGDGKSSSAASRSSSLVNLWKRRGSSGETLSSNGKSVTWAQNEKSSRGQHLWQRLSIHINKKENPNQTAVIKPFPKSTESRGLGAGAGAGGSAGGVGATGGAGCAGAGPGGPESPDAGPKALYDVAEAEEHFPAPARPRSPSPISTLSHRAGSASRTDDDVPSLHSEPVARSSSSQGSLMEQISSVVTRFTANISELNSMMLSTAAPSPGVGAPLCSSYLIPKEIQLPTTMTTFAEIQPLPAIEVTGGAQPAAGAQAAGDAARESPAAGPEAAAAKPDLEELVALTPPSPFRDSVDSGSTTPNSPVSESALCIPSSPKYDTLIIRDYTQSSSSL

Experiment [2] concerns amphetamine-induced hyperlocomotion. In words: Reversal of amphetamine-induced hyperlocomotion in rat. In kind it is in vivo. Conditions: male Sprague-Dawley rats; compound p.o.; amphetamine 1 mg/kg s.c. The procedure:
The study was carried out using male Sprague-Dawley rats weighing 225 g-275 g, between 2-3 months old (Harlan, Inc., Indianapolis, Ind.). They were kept in the animal care facility certified by the American Association for the Accreditation of Laboratory Animal Care (AALAC) under a 12-hour light/dark cycle (lights on: 6 a.m.; lights off: 6 p.m.) and had free access to food and water. The experimental protocols performed during the light cycle were approved by the Institutional Animals Care and Use Committee of Vanderbilt University and conformed to the guidelines established by the National Research Council Guide for the Care and Use of Laboratory Animals.
Locomotor activity was assessed as mean distance traveled (cm) in Smart Open Field locomotor activity test chambers (Hamilton-Kinder, San Diego, Calif.) with 16×16 photobeams with chambers measuring 43.2 cm (Length)×43.2 cm (Width)×30.5 cm (Height) (Med Associates, St. Albans, Vt.). […] At 60 min, all rats were injected subcutaneously with 1 mg/kg amphetamine or vehicle and then monitored for an additional 60 min. Animals are monitored for a total of 120 minutes.
Data are expressed as the mean (±SEM) distance traveled recorded in 5 min intervals over the test period. The data was analyzed using repeated measures analysis of variance (ANOVA) followed by post-hoc testing using Dunnett's test, when appropriate. […]

What is called Emax is the size of the effect at its maximum, as opposed to the concentration needed. What is called EC50 is the concentration needed to bring the measured effect to its halfway point. Take `O=C1c2cc(COc3ccccc3)nn2CCN1C[C@H]1CC1(F)F` [Compound 1, (R)-5-((2,2-difluorocyclopropyl)methyl)-2-(phenoxymethyl)-6,7-dihydropyrazolo[1,5-a]pyrazin-4(5H)-one]: the Emax in experiment [1] (maximum % effect as percent of response to maximally effective glutamate, glutamate EC20 present, read-out: Emax (%)) came out at 55%. The EC50 in experiment [1] (potentiation in presence of glutamate EC20) is 234 nM. Besides, the “reversal of amphetamine-induced hyperlocomotion” value in experiment [2] was “effective in reducing amphetamine-induced hyperlocomotion”.

For the origin of these results see patent US20130345204A1, “SUBSTITUTED BICYCLIC CYCLOALKYL PYRAZOLE LACTAM ANALOGS AS ALLOSTERIC MODULATORS OF MGLUR5 RECEPTORS” (Vanderbilt University, priority 2012, published 2013).
